Assay [1] deals with NADH production by serine catabolism. In words: In vivo [2,3,3-2H]serine infusion, malate labeling. The following applies: WT C57BL6/J mice, SHIN2 200 mg/kg ip single injection before 2.5 h tracer infusion. Here is the method: Mouse breeding and isotope tracing. Animal studies followed protocols approved by the Princeton University Institutional Animal Care and Use Committee and the Rutgers University Institutional Animal Care and Use Committee. NDUFS4+/− mice were purchased from Jackson Laboratory. The mice were on normal light cycle (7 AM-7 PM). In vivo infusion was performed on 9-week old normal C57BL/6 mice pre-catheterized on the right jugular vein, and 4-week old NDUFS4−/− or NDUFS4+/+ mice pre-catheterized on the jugular vein. Infusion was performed for 2.5 h to achieve isotopic pseudo-steady state. The mouse infusion setup included a tether and swivel system, connecting to the button pre-implanted under the back skin of mice. Mice were fasted from 9:00 am to 2 pm, and infused from 2 pm till 4:30 pm. […]
Calculation of 2H-serine contribution to malate, aspartate, and NADH: For malate and aspartate, the 2H-labeling fraction was measured directly (fractional size of 2H-peak relative to sum of all peaks, after isotope correction as above). For NADH, the 2H-labeling fraction was measured based on the active hydride labeling (x), which was determined from the labeling pattern of NAD+ and NADH by least square fitting in MATLAB of the observed experimental data (after natural isotope correction) to the below vectors (Liu et al., 2016a). […]

In another assay the test system is NDUFS4−/− mice. The assay can be described thus: Treatment of NDUFS4−/− mice (mitochondrial disease model). It counts as in vivo. Here is the method:
NDUFS4−/− mice were housed with normal mice and gel food was supplied to guarantee sufficient food supply. Mice were grouped as vehicle control group and SHIN2 treatment groups. SHIN2 was dissolved in 20% 2-hydroxypropyl-cyclodextrin solution, and delivered by intraperitoneal (50 μg/g mice) b.i.d. Mice weights were recorded every day. Limb clasps were recorded daily, with mice annotated as having the pathological limb clasping phenotype on the third consecutive day of clasping. 20% weight loss of the peak weight for each mouse is considered as the humane endpoint.
Mouse Model. B6.129S4-Ndufs4+/− mice were purchased from Jackson laboratories. The mice are heterozygous for a protein in mitochondrial complex 1 and have been bred to generate homozygous knockout mouse for the study of mitochondrial deficiency. These mice are a model of mitochondrial disease and knockouts are healthy until approximately 5 weeks age, but develop lethal encephalomyopathy by 7 weeks.
Treatment strategy: Mice were grouped as vehicle treatment group and KDG112 treatment group. KDG112 was dissolved in 20% hydroxypropyl cyclodextrin to a final concentration of 5 mg/ml. Mice were dosed B.I.D at 50 mg/kg ip. Mice weight and body temperature are recorded, and body condition score were given according to the chart below.

Where [2] appears, read: KDG112 50 mg/kg ip B.I.D, compared to vehicle.

Molecules are shown by their SMILES. Entries after “also recorded” stand apart in the source; their conditions may differ.

Take `Cc1n[nH]c2c1C(c1cc(C#CCCCO)cc(CO)c1)(C(C)C)C(C#N)=C(N)O2` (stereo not drawn) [SHIN2]: the “malate labeling from [2,3,3-2H]serine (NADH production by serine catabolism)” value in assay [1] is listed as “blocks NADH production by serine catabolism in vivo; also recorded: blocked most malate labeling”. In the assay with NDUFS4−/− mice (setting [2]), the body condition score entry was “lower score”, the body temperature result is recorded as “higher body temperature”, the locomotor activity entry is “better locomotor activity” and the “symptoms of hind limb clasp” value is “delayed symptoms of hind limb clasp”. Also, the pathological limb clasping entry with NDUFS4−/− mice (SHIN2 50 mg/kg b.i.d. from postnatal day 25±4, versus vehicle, 50 mg/kg) was “Delayed occurrence of limb clasping; also recorded: delayed pathological clasping behavior”. In the assay on NDUFS4−/− mice (SHIN2 50 mg/kg b.i.d. versus vehicle, p=0.18, log-rank Test), the survival result was “not significantly altering survival”. For the same compound, the “time after day 49 until hind limb clasping symptoms develop” value in the assay on NDUFS4−/− mice (first pair of pups, KDG112 treated mouse) amounted to 10 days. For the same compound, the “leg control and cage edge test” value in the assay on NDUFS4−/− mice (first pair of pups, day 49 (P49), treatment from P29) is “can control its leg normally as wild type, and can walk freely on the edge test”. The body weight entry in the assay with NDUFS4−/− mice (first pair of pups, day 63) was “still maintains its weight”. The “day at which symptoms such as hind limb clasping develop” value in the assay on NDUFS4−/− mice (second pair of pups, KDG112 treated mouse) came out at 47 days. Further, the behaviour result with NDUFS4−/− mice (second pair of pups, day 38, treatment from P28) is “behaves normally”.

The values above are taken from patent US20230100559A1, “Compositions and Methods for Treatment of Disease by Manipulation of Serine Metabolism” (The Trustees of Princeton University, priority 2020, published 2023).
